Patent publication US9828350B2, “5,6-dihydro-2H-[1,4]oxazin-3-yl-amine derivatives useful as inhibitors of beta-secretase (BACE)” (Janssen Pharmaceutica NV, priority 2010, dated 2017)
Counter-ions that a name gives are not always drawn.

What was measured:
[1] = tested on: Abeta 1-42; experiment: Cellular αLisa assay in SKNBE2 cells, Abeta 1-42; type: cell-based, human; conditions: incubated for 18 hours; for IC50: Homo sapiens, SKNBE2, 18 h, read-out: Cellular αLisa assay in SKNBE2 cells Abeta 42 pIC50 (converted)
Description: (§1) Cellular αLisa Assay in SKNBE2 Cells
(§2) In two αLisa assays the levels of Abeta total and Abeta 1-42 produced and secreted into the medium of human neuroblastoma SKNBE2 cells are quantified. The assay is based on the human neuroblastoma SKNBE2 expressing the wild type Amyloid Precursor Protein (hAPP695). The compounds are diluted and added to these cells, incubated for 18 hours and then measurements of Abeta 1-42 and Abeta total are taken. Abeta total and Abeta 1-42 are measured by sandwich αLisa. αLisa is a sandwich assay using biotinylated antibody AbN/25 attached to streptavidin coated beads and antibody Ab4G8 or cAb42/26 conjugated acceptor beads for the detection of Abeta total and Abeta 1-42 respectively. In the presence of Abeta total or Abeta 1-42, the beads come into close proximity. The excitation of the donor beads provokes the release of singlet oxygen molecules that trigger a cascade of energy transfer in the acceptor beads, resulting in light emission. Light emission is measured after 1 hour incubation (excitation at […] and emission at 615 nm).

[2] = tested on: Abeta total; experiment: Cellular αLisa assay in SKNBE2 cells, Abeta total; type: cell-based, human; conditions: incubated for 18 hours; for IC50: Homo sapiens, SKNBE2, 18 h, read-out: Cellular αLisa assay in SKNBE2 cells Abetatotal pIC50 (converted)
Description: as §1, §2

[3] = target: recombinant BACE1 protein (Homo sapiens, UniProt P56817); experiment: Biochemical FRET based assay; conditions: recombinant BACE1 1 μg/ml, 120 minutes at room temperature, pH 5.0
From the text: Biochemical FRET Based Assay
This assay is a Fluorescence Resonance Energy Transfer Assay (FRET) based assay. The substrate for this assay is an APP derived 13 amino acids peptide that contains the ‘Swedish’ Lys-Met/Asn-Leu mutation of the amyloid precursor protein (APP) beta-secretase cleavage site. This substrate also contains two fluorophores: (7-methoxycoumarin-4-yl) acetic acid (Mca) is a fluorescent donor with excitation wavelength at 320 nm and emission at 405 nm and 2,4-Dinitrophenyl (Dnp) is a proprietary quencher acceptor. […] Upon cleavage by BACE1, the fluorophore Mca is separated from the quenching group Dnp, restoring the full fluorescence yield of the donor. The increase in fluorescence is linearly related to the rate of proteolysis.
Briefly in a 384-well format recombinant BACE1 protein in a final concentration of 1 μg/ml is incubated for 120 minutes at room temperature with […] substrate in incubation buffer (40 mM Citrate buffer pH 5.0, 0.04% PEG, 4% DMSO) in the absence or presence of compound. Next the amount of proteolysis is directly measured by fluorescence measurement at T=0 and T=120 (excitation at 320 nm and emission at 405 nm). Results are expressed in RFU (Relative Fluorescence Units), as difference between T120 and TO.

recombinant BACE1 protein, sequence (P56817 46-501): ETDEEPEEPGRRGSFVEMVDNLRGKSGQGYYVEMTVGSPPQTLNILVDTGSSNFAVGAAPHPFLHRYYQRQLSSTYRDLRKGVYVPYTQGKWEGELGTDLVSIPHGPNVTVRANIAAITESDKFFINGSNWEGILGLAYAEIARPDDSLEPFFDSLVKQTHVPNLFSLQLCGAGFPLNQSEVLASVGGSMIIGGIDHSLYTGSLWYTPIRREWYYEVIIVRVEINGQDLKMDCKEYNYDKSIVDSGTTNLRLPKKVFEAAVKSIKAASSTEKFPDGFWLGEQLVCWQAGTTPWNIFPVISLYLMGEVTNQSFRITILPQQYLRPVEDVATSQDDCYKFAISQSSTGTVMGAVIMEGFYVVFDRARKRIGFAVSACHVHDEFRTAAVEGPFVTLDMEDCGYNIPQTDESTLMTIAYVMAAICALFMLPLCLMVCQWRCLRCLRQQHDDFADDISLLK

Row | IC50 [1] | IC50 [2] | Cellular αLisa assay in SKNBE2 cells Abeta 42 pIC50 [1] | Biochemical FRET based assay pIC50 [3] | Cellular αLisa assay in SKNBE2 cells Abetatotal pIC50 [2] | IC50 ([3]; read-out: Biochemical FRET based assay pIC50 (converted)) | SMILES
1 | 631 nM | 646 nM | – | – | – | – | CC1(c2cccc(-c3cncnc3)c2)COCC(N)=N1 (racemic) [Compound 3, rac-5-methyl-5-(3-pyrimidin-5-ylphenyl)-5,6-dihydro-2H-1,4-oxazin-3-amine trifluoroacetate salt]
2 | – | – | 6.49 | 5.39 | 6.53 | – | Cc1cnc(C(=O)Nc2cccc(C3(C)COCC(N)=N3)c2)cn1 (racemic) [Compound 7]
3 | – | – | 6. | 5.12 | 6.58 | – | CC1(c2cccc(-c3cccc(C#N)c3)c2)COCC(N)=N1 (racemic) [Compound 10]
4 | – | – | 6.2 | 4.84 | 6.33 | – | Cc1cncc(-c2cccc(C3(C)COCC(N)=N3)c2)c1 (racemic) [Compound 11]
5 | – | – | 6.83 | 5.37 | 6.84 | – | CC1(c2cc(NC(=O)c3ccc(C(F)(F)F)cn3)c(F)cc2F)COCC(N)=N1 (racemic) [Compound 13]
6 | 389 nM | 355 nM | – | – | – | 2190 nM | COc1cncc(-c2cccc(C3(C)COC4(CC4)C(N)=N3)c2)c1 (racemic) [Compound 16, rac-6-[3-(5-methoxypyridin-3-yl)phenyl]-6-methyl-4-oxa-7-azaspiro[2.5]oct-7-en-8-amine]
7 | – | – | 8.32 | – | 8.3 | – | CC1(c2cc(NC(=O)c3ccc(Cl)cn3)ccc2F)COCC(N)=N1 (racemic) [Compound 17]
8 | – | – | 7.79 | – | 7.8 | – | COc1cnc(C(=O)Nc2ccc(F)c(C3(C)COCC(N)=N3)c2)cn1 (racemic) [Compound 57]
9 | – | – | 8.32 | – | 8.3 | – | CC1(c2cc(NC(=O)c3ccc(Cl)cn3)ccc2F)COCC(N)=N1 (racemic) [Compound 65]
10 | 15.5 nM | 12.6 nM | – | – | – | – | CC1(c2cc(NC(=O)c3ccc(Cl)cn3)ccc2F)N=C(N)COC1C(F)(F)F (racemic) [Compound 107, trans-rac-N-{3-[5-amino-3-methyl-2-(trifluoromethyl)-3,6-dihydro-2H-1,4-oxazin-3-yl]-4-fluorophenyl}-5-chloropyridine-2-carboxamide]
11 | – | – | 6.94 | – | 6.98 | – | CC1(c2cc(NC(=O)c3ccc(Cl)cn3)ccc2F)COCC(N)=N1 (single isomer, unassigned) [Compound 61]
12 | 708 nM | 832 nM | – | – | – | – | C[C@@]1(c2cc(NC(=O)c3ccc(Cl)cn3)ccc2F)N=C(N)CO[C@]1(F)C(F)(F)F (single isomer, unassigned) [Compound 109, (2R*,3S*)—N-{3-[5-amino-2-fluoro-3-methyl-2-(trifluoromethyl)-3,6-dihydro-2H-1,4-oxazin-3-yl]-4-fluorophenyl}-5-chloropyridine-2-carboxamide]
13 | 22.9 nM | 22.4 nM | – | – | – | – | C[C@]1(c2cc(NC(=O)c3ccc(Cl)cn3)ccc2F)N=C(N)CO[C@@]1(F)C(F)(F)F (single isomer, unassigned) [Compound 110, (2S*,3R*)—N-{3-[5-amino-2-fluoro-3-methyl-2-(trifluoromethyl)-3,6-dihydro-2H-1,4-oxazin-3-yl]-4-fluorophenyl}-5-chloropyridine-2-carboxamide]
14 | – | – | 5.82 | – | 5.5 | – | CC1(c2cccc(NC(=O)c3ccc(Cl)cn3)c2)N=C(N)COC1(F)C(F)(F)F (single isomer, unassigned) [Compound 114]
15 | – | – | – | – | 6.68 | – | CC1(c2cccc(NC(=O)c3ccc(Cl)cn3)c2)N=C(N)COC1(F)C(F)(F)F (single isomer, unassigned) [Compound 115]
16 | – | – | 6.44 | – | 6.42 | – | CC1(c2cc(NC(=O)c3ccc(C#N)cn3)ccc2F)N=C(N)COC1F (single isomer, unassigned) [Compound 125]
17 | 5250 nM | 4570 nM | – | – | – | – | COc1cnc(C(=O)Nc2ccc(F)c(C3(C)N=C(N)COC3F)c2)cn1 (single isomer, unassigned) [Compound 129]

Row | IC50 [1] | IC50 [2] | Cellular αLisa assay in SKNBE2 cells Abeta 42 pIC50 [1] | Biochemical FRET based assay pIC50 [3] | Cellular αLisa assay in SKNBE2 cells Abetatotal pIC50 [2] | IC50 ([3]; read-out: Biochemical FRET based assay pIC50 (converted)) | SMILES
18 | – | – | 5.04 | – | 5.06 | – | CC1(c2cc(NC(=O)c3ccc(Cl)cn3)ccc2F)N=C(N)COC1F (single isomer, unassigned) [Compound 135]
19 | – | – | 5.26 | – | 5.27 | – | CC1(c2cc(NC(=O)c3ccc(Cl)cn3)ccc2F)N=C(N)COC1F (single isomer, unassigned) [Compound 136]
20 | – | – | <4.82 | – | <4.82 | – | CC1(c2cc(NC(=O)c3ccc(Cl)cn3)ccc2F)N=C(N)COC1F (single isomer, unassigned) [Compound 137]
21 | – | – | 6.15 | – | 6.08 | – | CC1(c2cc(NC(=O)c3ccc(Cl)cn3)ccc2F)N=C(N)COC1(F)C(F)(F)F.Cl.Cl (single isomer, unassigned) [Compound 159]
22 | – | – | 8.27 | – | 8.3 | – | CC1(c2cc(NC(=O)c3ncc(Cl)cc3Cl)ccc2F)COCC(N)=N1 (stereo not drawn) [Compound 21]
23 | – | – | 8.39 | – | 8.3945 | – | C[C@@]1(c2cc(NC(=O)c3ccc(Cl)cn3)ccc2F)COCC(N)=N1 [Compound 44]
24 | – | – | 8.39 | – | 8.39 | – | C[C@@]1(c2cc(NC(=O)c3ccc(Cl)cn3)ccc2F)COCC(N)=N1 [Compound 62]
25 | 11 nM | 11.2 nM | – | – | – | – | CC1(c2cc(NC(=O)c3ccc(C#N)cn3)ccc2F)N=C(N)COC1F (stereo not drawn) [Compound 76]
26 | 25.7 nM | 25.7 nM | – | – | – | – | COc1cnc(C(=O)Nc2ccc(F)c(C3(C)N=C(N)COC3F)c2)cn1 (stereo not drawn) [Compound 79]
27 | – | – | 8.14 | – | 8.13 | – | CC1(c2cc(NC(=O)c3ccc(Cl)cn3)ccc2F)N=C(N)COC1C(F)(F)F (stereo not drawn) [Compound 165]
28 | – | – | 8 | – | 8 | – | CC1(c2cc(NC(=O)c3ccc(Cl)cn3)ccc2F)N=C(N)COC1C(F)(F)F (stereo not drawn) [Compound 170]
29 | – | – | 6.75 | – | 6.78 | – | CC1(c2cc(NC(=O)c3ccc(Cl)cn3)ccc2F)N=C(N)COC1(F)C(F)(F)F (stereo not drawn) [Compound 186]
30 | – | – | – | – | 7.11 | – | COc1cnc(C(=O)Nc2ccc(F)c(C3(C4CC4)N=C(N)COC3F)c2)cn1.Cl (stereo not drawn) [Compound 244]
31 | 16.2 nM | 14.5 nM | – | – | – | – | COc1ccc(C(=O)Nc2cccc([C@@]3(C)N=C(N)CO[C@]3(F)C(F)(F)F)c2)nc1 [Compound 247]
32 | 229 nM | 209 nM | – | – | – | – | COc1ccc(C(=O)Nc2cccc([C@@]3(C)N=C(N)CO[C@@]3(F)C(F)(F)F)c2)nc1 [Compound 248]
33 | 8130 nM | 6460 nM | – | – | – | – | NC1=N[C@@](c2cc(-c3cncc(Cl)c3)ccc2F)(C2CC2)[C@H](F)OC1 [Compound 273]

Row | SMILES | IC50 [1] | IC50 [2] | Cellular αLisa assay in SKNBE2 cells Abeta 42 pIC50 [1] | Biochemical FRET based assay pIC50 [3] | Cellular αLisa assay in SKNBE2 cells Abetatotal pIC50 [2] | IC50 ([3]; read-out: Biochemical FRET based assay pIC50 (converted))
34 | COc1cncc(-c2cccc([C@]3(C)CO[C@@H](C)C(N)=N3)c2)c1 (racemic) [Compound 18, trans-rac-5-[3-(5-methoxypyridin-3-yl)phenyl]-2,5-dimethyl-5,6-dihydro-2H-1,4-oxazin-3-amine] | – | – | 6.57 | 5.54 | 6.61 | –
35 | COc1cncc(-c2cccc([C@@]3(C)CO[C@@H](C)C(N)=N3)c2)c1 (racemic) [Compound 19, cis-rac-5-[3-(5-methoxypyridin-3-yl)phenyl]-2,5-dimethyl-5,6-dihydro-2H-1,4-oxazin-3-amine] | – | – | 6.29 | 5.38 | 6.352 | –
